Experimental data from patent publication US20260232682A1, “GSPT1 DEGRADER COMPOUNDS” (Captor Therapeutics S.A., priority 2023, published 2026).

Legend:
[1] = target: T1, [SALL4 ZF2]-[compound]-[CRBN/DDB1] ternary complex (Homo sapiens, UniProt Q96SW2+Q9UJQ4); assay: AlphaLISA assay for off-target recruitment detection, SALL4 ZF2; format: binding; conditions: 1 μM compound, normalized to Lenalidomide; for activation at 1 µM: read-out: Normalized ternary complex response, SALL4 ZF2
T1 construct: SALL4 ZF2
Procedure: (§1) The ability of the molecular glue compounds of the invention to mediate the proximity of CRBN with its known neo-substrates (shown in Table 3) was assessed using AlphaLISA to detect the formation of a [neo-substrate]-[compound of formula (I)]-[CRBN/DDB1] ternary complex.
(§2) Two types of protein solution were prepared: • neo-substrate, 40 μg/ml AlphaScreen Donor Beads (Table 3) in PBS (10 mM phosphate buffer, 137 mM NaCL, 2.7 mM KCl, pH 7.4) buffer supplemented with Tween-20 (Table 3) and 1 mM DTT, • 200 nM 6×His-CRBN/DDB1, 40 μg/ml AlphaLISA Anti-6×His Acceptor beads in PBS buffer with Tween-20 (Table 3) and 1 mM DTT.
(§3) The prepared solutions were incubated at room temperature for 30 min and then the solution containing the donor beads was mixed with the solution containing the acceptor beads.
(§4) The tested compounds were dispensed onto a white 384-well AlphaPlate 384 SW. DMSO was backfilled to all wells, resulting in a final DMSO content of 2%. Wells containing only DMSO served as background. Next, 10 μl of solution with donor and acceptor beads was added to the wells.
(§5) The plate was sealed with transparent film and shaken using a VibroTurbulator for 60 sec at room temperature, level 3. The plate was then spun down shortly (10 sec, 1000 rcf, room temperature) and incubated at 25° C. for 30 min.
(§6) The read-out was performed with PerkinElmer Enspire Multimode Plate Reader (method for AlphaLISA 384-well low volume, Filterset: λexc=680 nm, λem=615 nm).
(§7) The results were analyzed as follows: • 1) an average of luminescence for background signal was calculated and used as a negative control; • 2) an average of the maximum measured luminescence for reference compound (Table 3) was calculated and used as an internal positive control; • 3) raw luminescence values were normalized against positive and negative controls; • 4) Normalized responses to reference molecular glue were determined.

[2] = target: T2, [IKZF1 ZF2]-[compound]-[CRBN/DDB1] ternary complex (Homo sapiens, UniProt Q13422+Q96SW2); assay: AlphaLISA assay for off-target recruitment detection, IKZF1 ZF2; format: binding; conditions: 1 μM compound, normalized to Lenalidomide; for activation at 1 µM: read-out: Normalized ternary complex response, IKZF1 ZF2
T2 construct: IKZF1 ZF2
Procedure: as §1, §2, §3, §4, §5, §6, §7

[3] = target: [CK1α]-[compound]-[CRBN/DDB1] ternary complex (Homo sapiens, UniProt P48729+Q96SW2); assay: AlphaLISA assay for off-target recruitment detection, CK1α; format: binding; conditions: 1 μM compound, normalized to FPFT-2216; for activation at 1 µM: read-out: Normalized ternary complex response, CK1α
Procedure: as §1, §2, §3, §4, §5, §6, §7

[4] = target: T3, [IKZF2 ZF2]-[compound]-[CRBN/DDB1] ternary complex (Homo sapiens, UniProt Q96SW2+Q9UKS7); assay: AlphaLISA assay for off-target recruitment detection, IKZF2 ZF2; format: binding; conditions: 1 μM compound, normalized to Helios modulator; for activation at 1 µM: read-out: Normalized ternary complex response, IKZF2 ZF2
T3 construct: IKZF2 ZF2
Procedure: as §1, §2, §3, §4, §5, §6, §7

[5] = target: T4, [GSPT1]-[compound of formula (I)]-[CRBN/DDB1] complex (Homo sapiens, UniProt P15170+Q96SW2); assay: AlphaLISA ternary complex formation assay (GSPT1); format: binding; conditions: 0.5 h; 1 μM compound; normalized to reference compound CC-885; read-out: Normalized AlphaLISA ternary complex average signal at 1 μM molecule
Procedure: The effect of the molecular glue compounds of the invention on the formation of a ternary complex composed of [GSPT1]-[compound of formula (I)]-[CRBN/DDB1] was investigated with two methods: AlphaLISA dose response assay or HTRF ternary complex assay.
Two types of protein solution were prepared: • 200 nM biotinylated GSPT1 (Table 3), 40 μg/ml AlphaScreen Streptavidin-coated Donor Beads in HBS (10 mM HEPES, 150 mM NaCL, pH 7.4) buffer with 0.1% Tween-20 and 1 mM DTT, • 200 nM 6×His-CRBN/DDB1, 40 μg/ml AlphaLISA Anti-6×His Acceptor beads in HBS buffer with 0.1% Tween-20 and 1 mM DTT.
as §3, §4, §5, §6
as §7, with “2)” for “2) an”, “(structure shown in Table 3 below)” for “(Table 3)”, “positive control” for “reference molecular glue”

[6] = target: CRBN/DDB1 protein complex (Homo sapiens, UniProt Q96SW2); assay: CRBN displacement TR-FRET assay; conditions: Thalidomide-Red tracer, 6×His-CRBN/DDB1; read-out: CRBN binding Ki
Procedure: CRBN/DDB1 protein complex was mixed with Thalidomide-Red and a compound to be tested (the “test compound”). The test solution contained PPI Europium detection buffer, 1 mM DTT, 6.8 nM Thalidomide-Red (the tracer), 5 nM 6×His-CRBN/DDB1 protein, 0.5 nM Anti-6× His-Eu cryptate, 1% DMSO. The test solution was added to a 384-well assay plate.
The plate was spun-down (1 min, 1000 rpm, 22° C.) and then shaken using a VibroTurbulator for 30 sec at room temperature (20-25° C.), with the frequency set to level 10. The assay plate with protein and the tracer was incubated for 180 min at room temperature (20-25° C.) prior to read-out with a plate reader. The read-out was performed with plate reader (Pherastar, BMG Labtech) in time resolved fluorescence mode. Filter settings: TR 337 665 620.
The CRBN displacement TR-FRET experiment was carried out with various concentrations of the test compounds in order to measure Ki values.
The Ki values of competitive inhibitors were calculated using the equation based on the IC50 values of relationship between compound concentration and measured […], the Kd value of the Thalidomide-Red and CRBN/DDB1 complex, and the concentrations of the protein and the tracer in the displacement assay (as described by Cheng and Prusoff, Biochem Pharmacol 1973; 22:3099-3108).

[7] = target: T4, [GSPT1]-[compound of formula (I)]-[CRBN/DDB1] complex; assay: HTRF ternary complex assay (GSPT1); format: binding; conditions: read-out: HTRF ternary complex Average pEC50 by molecule (converted)
Procedure: The effect of the molecular glue compounds of the invention on the formation of a ternary complex composed of [GSPT1]-[compound of formula (I)]-[CRBN/DDB1] was investigated.
Mix solution of proteins and reagents was prepared: • 48 nM GSPT1, 52.8 nM 6×His-CRBN/DDB1, 3 nM of Streptavidin-Eu cryptate ([…]) and 6.67 nM of Anti-6×his-d2 ([…]) was prepared in PPI Europium detection buffer (purchased from Cisbio) with 1 mM DTT.
The tested compounds in dose-response were dispensed onto a white 384-well low volume plate (Greiner, 784075). DMSO was backfilled to all wells, resulting in a final DMSO content of 0.5%. Wells containing only DMSO served as background.
The plate was sealed with transparent film and shaken using a VibroTurbulator for 60 sec at level 3.
The plate was then spun down shortly (10 sec, 1000 rcf) and incubated at 25° C. for 180 min.
The read-out was performed with plate reader (Pherastar, BMG Labtech) in time resolved fluorescence mode. Filter settings: TR 337 665 620.
The results were analyzed as follows: • 1) an average of fluorescence for background signal was calculated and used as a negative control; • 2) raw fluorescence values for tested compounds were normalized against negative controls; • 3) saturation curve was fitted to specific binding with Hill slope model; • 4) EC50 and pEC50 values were determined.

T3 sequence (Q9UKS7 140-162 limits assumed): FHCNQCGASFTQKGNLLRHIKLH
T3 sequence (Q96SW2 whole entry): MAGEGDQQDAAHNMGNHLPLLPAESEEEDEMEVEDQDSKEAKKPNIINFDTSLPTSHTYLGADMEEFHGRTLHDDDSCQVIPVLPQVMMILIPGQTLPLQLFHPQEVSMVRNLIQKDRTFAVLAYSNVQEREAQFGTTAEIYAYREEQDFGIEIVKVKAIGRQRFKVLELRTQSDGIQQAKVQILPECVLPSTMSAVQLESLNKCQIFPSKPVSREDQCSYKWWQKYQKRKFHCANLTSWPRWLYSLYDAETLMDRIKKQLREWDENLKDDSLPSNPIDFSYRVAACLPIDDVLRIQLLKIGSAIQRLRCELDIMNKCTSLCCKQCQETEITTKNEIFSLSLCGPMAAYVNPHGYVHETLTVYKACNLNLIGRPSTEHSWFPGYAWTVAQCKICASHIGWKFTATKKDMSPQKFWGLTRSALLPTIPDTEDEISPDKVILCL
T3 sequence (Q16531 whole entry partner): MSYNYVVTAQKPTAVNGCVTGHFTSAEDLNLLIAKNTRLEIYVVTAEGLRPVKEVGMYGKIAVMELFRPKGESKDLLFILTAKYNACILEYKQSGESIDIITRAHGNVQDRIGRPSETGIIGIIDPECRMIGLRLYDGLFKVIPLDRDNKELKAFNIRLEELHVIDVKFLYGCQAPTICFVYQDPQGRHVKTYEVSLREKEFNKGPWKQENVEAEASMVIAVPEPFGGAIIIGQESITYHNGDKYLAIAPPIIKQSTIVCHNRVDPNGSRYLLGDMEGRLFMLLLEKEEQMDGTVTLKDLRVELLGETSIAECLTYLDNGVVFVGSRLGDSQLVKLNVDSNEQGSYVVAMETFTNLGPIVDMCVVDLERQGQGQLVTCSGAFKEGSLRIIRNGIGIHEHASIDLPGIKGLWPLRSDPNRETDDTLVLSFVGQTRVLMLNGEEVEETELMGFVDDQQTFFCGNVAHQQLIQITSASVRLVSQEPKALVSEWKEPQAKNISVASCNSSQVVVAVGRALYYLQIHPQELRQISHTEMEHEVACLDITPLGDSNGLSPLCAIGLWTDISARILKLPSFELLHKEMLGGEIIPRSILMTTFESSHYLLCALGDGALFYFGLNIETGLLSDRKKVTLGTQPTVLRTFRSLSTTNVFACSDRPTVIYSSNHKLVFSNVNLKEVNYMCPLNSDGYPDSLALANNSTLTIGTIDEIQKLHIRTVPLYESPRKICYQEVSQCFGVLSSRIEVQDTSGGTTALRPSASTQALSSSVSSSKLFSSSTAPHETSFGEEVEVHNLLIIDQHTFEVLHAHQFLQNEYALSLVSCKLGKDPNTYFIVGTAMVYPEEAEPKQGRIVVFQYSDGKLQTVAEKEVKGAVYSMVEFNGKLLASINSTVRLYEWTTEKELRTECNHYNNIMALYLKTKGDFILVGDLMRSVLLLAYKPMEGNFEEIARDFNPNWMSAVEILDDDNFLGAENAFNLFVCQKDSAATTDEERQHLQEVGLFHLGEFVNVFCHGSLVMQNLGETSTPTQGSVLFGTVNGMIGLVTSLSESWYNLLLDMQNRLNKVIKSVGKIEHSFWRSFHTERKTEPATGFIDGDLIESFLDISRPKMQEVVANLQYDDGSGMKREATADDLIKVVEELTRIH
T1 sequence (Q9UJQ4 410-432 limits assumed): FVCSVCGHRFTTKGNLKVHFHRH
T1 sequence (Q96SW2 whole entry): as the sequence (Q96SW2 whole entry) above
T1 sequence (Q16531 whole entry partner): as the sequence (Q16531 whole entry partner) above
T2 sequence (Q13422 145-167 limits assumed): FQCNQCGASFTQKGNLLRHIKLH
T2 sequence (Q96SW2 whole entry): as the sequence (Q96SW2 whole entry) above
T2 sequence (Q16531 whole entry partner): as the sequence (Q16531 whole entry partner) above
T4 sequence (P15170 whole entry): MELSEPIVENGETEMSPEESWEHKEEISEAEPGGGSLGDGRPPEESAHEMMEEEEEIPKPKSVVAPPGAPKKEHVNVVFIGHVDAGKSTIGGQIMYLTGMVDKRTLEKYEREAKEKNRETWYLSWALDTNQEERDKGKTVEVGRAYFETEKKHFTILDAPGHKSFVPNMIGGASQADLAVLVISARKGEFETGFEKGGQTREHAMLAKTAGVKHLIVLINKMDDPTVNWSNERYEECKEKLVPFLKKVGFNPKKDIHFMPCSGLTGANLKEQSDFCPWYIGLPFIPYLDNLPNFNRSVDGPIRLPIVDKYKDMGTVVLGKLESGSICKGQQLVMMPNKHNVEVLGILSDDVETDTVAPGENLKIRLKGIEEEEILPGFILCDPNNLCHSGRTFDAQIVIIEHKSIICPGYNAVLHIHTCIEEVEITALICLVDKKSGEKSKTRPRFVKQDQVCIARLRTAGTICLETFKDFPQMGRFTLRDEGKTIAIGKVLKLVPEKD
T4 sequence (Q96SW2 whole entry): as the sequence (Q96SW2 whole entry) above
T4 sequence (Q16531 whole entry partner): as the sequence (Q16531 whole entry partner) above
Chain of CRBN/DDB1 protein complex (Q96SW2 whole entry, species assumed): as the sequence (Q96SW2 whole entry) above
Chain of CRBN/DDB1 protein complex (Q16531 whole entry partner, species assumed): as the sequence (Q16531 whole entry partner) above
Chain of [CK1α]-[compound]-[CRBN/DDB1] ternary complex (P48729 whole entry): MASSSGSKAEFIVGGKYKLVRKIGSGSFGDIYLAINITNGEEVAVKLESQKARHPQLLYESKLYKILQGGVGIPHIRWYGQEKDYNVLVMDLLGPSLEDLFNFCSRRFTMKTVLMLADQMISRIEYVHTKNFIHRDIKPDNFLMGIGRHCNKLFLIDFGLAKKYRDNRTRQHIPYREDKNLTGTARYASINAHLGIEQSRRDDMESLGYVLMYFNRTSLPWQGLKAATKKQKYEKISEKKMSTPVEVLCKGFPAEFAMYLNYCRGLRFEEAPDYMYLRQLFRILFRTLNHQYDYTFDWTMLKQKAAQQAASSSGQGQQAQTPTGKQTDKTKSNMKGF
Chain of [CK1α]-[compound]-[CRBN/DDB1] ternary complex (Q96SW2 whole entry): as the sequence (Q96SW2 whole entry) above
Chain of [CK1α]-[compound]-[CRBN/DDB1] ternary complex (Q16531 whole entry partner): as the sequence (Q16531 whole entry partner) above

Normalized ternary complex response, SALL4 ZF2 [1] | Normalized ternary complex response, IKZF1 ZF2 [2] | Normalized ternary complex response, CK1α [3] | Normalized ternary complex response, IKZF2 ZF2 [4] | activation at 1 µM [1] [%] | activation at 1 µM [2] [%] | activation at 1 µM [3] [%] | activation at 1 µM [5] [%] | Ki [6] [µM] | EC50 [7] [µM] | activation at 1 µM [4] [%] | Structure (SMILES)
A (A≥50%) | A (A≥50%) | C (10%≤C<25%) | A (A≥50%) | – | – | – | – | – | – | – | Cc1ccc(NC(=O)NCc2ccc3c(c2)CN(C2CCC(=O)NC2=O)C3=O)cc1Cl (centres unmarked) [CC-885, reference compound]
– | – | – | – | ≥ 50 | 25 to 50 | < 10 | > 50 | < 0.5 | < 0.316 | 10 to 25 | Cc1nc2ccc(CNC(=O)C(=O)c3ccc(C(C)(C)C)cc3)cc2cc1C1CCC(=O)NC1=O (centres unmarked) [Compound 1, 2-(4-(tert-butyl)phenyl)-N-((3-(2,6-dioxopiperidin-3-yl)-2-methylquinolin-6-yl)methyl)-2-oxoacetamide]
– | – | – | – | < 10 | < 10 | < 10 | 10 to 50 | > 1 | > 3.16 | < 10 | Cc1ccc(Nc2c(NCc3ccc4cc(C5CCC(=O)NC5=O)c(C)nc4c3)c(=O)c2=O)cc1Cl (centres unmarked) [Compound 3, 3-(7-(((2-((3-chloro-4-methylphenyl)amino)-3,4-dioxocyclobut-1-en-1-yl)amino)methyl)-2-methylquinolin-3-yl)piperidine-2,6-dione]
– | – | – | – | ≥ 50 | 25 to 50 | < 10 | 10 to 50 | < 0.5 | > 3.16 | < 10 | Cc1nc2ccc(COC(=O)Nc3cc(OC(F)(F)F)ccc3F)cc2cc1C1CCC(=O)NC1=O (centres unmarked) [Compound 7, (3-(2,6-dioxopiperidin-3-yl)-2-methylquinolin-6-yl)methyl (2-fluoro-5-(trifluoromethoxy)phenyl)carbamate]
– | – | – | – | < 10 | < 10 | < 10 | 10 to 50 | < 0.5 | > 3.16 | < 10 | Cc1ccc(-c2nnc(NCc3ccc4cc(C5CCC(=O)NC5=O)c(C)nc4c3)o2)cc1Cl (centres unmarked) [Compound 13, 3-(7-(((5-(3-chloro-4-methylphenyl)-1,3,4-oxadiazol-2-yl)amino)methyl)-2-methylquinolin-3-yl)piperidine-2,6-dione]
– | – | – | – | 25 to 50 | < 10 | < 10 | 10 to 50 | < 0.5 | > 3.16 | < 10 | Cc1nc2ccc(CNC(=O)C(=O)N3CCC(C(C)(C)C)CC3)cc2cc1C1CCC(=O)NC1=O (centres unmarked) [Compound 23, 2-(4-(tert-butyl)piperidin-1-yl)-N-((3-(2,6-dioxopiperidin-3-yl)-2-methylquinolin-6-yl)methyl)-2-oxoacetamide]
– | – | – | – | 25 to 50 | < 10 | < 10 | 10 to 50 | 0.5 to 1 | 0.316 to 3.16 | < 10 | Cc1ccc(NCC(=O)NCc2ccc3nc(C)c(C4CCC(=O)NC4=O)cc3c2)cc1Cl (centres unmarked) [Compound 26, 2-((3-chloro-4-methylphenyl)amino)-N-((3-(2,6-dioxopiperidin-3-yl)-2-methylquinolin-6-yl)methyl)acetamide]
– | – | – | – | < 10 | < 10 | < 10 | < 10 | 0.5 to 1 | > 3.16 | < 10 | Cc1ccc(NC(=O)C(C)Oc2ccc3cc(C4CCC(=O)NC4=O)c(C)nc3c2)cc1Cl (centres unmarked) [Compound 34, N-(3-chloro-4-methylphenyl)-2-((3-(2,6-dioxopiperidin-3-yl)-2-methylquinolin-7-yl)oxy)propenamide]
– | – | – | – | < 10 | < 10 | < 10 | < 10 | < 0.5 | > 3.16 | < 10 | Cc1nc2cc(OC(C)C(=O)NC3CCCCC3)ccc2cc1C1CCC(=O)NC1=O (centres unmarked) [Compound 36, N-cyclohexyl-2-((3-(2,6-dioxopiperidin-3-yl)-2-methylquinolin-7-yl)oxy)propenamide]
– | – | – | – | < 10 | < 10 | < 10 | 10 to 50 | < 0.5 | > 3.16 | < 10 | Cc1nc2cc(COC(=O)NC3CCN(c4ccccc4)CC3)ccc2cc1C1CCC(=O)NC1=O (centres unmarked) [Compound 47, (3-(2,6-dioxopiperidin-3-yl)-2-methylquinolin-7-yl)methyl (1-phenylpiperidin-4-yl)carbamate]
– | – | – | – | ≥ 50 | 25 to 50 | < 10 | 10 to 50 | > 1 | 0.316 to 3.16 | 10 to 25 | Cc1nc2ccc(CNC(=O)NC3CCCCC3)cc2cc1N1CCC(=O)NC1=O [Compound 52, 1-cyclohexyl-3-((3-(2,4-dioxotetrahydropyrimidin-1(2H)-yl)-2-methylquinolin-6-yl)methyl)urea]
